According to patent publication US7317028B2, “Cell differentiation inducer” (Schering Aktiengesellschaft, priority 1996, dated 2008):

Experiments:
A2780 cells = test: Test for induction of differentiation in A2780 cells (ALP activity, ALPmin); type: cell-based, human; settings: Homo sapiens, 72 h; A2780 cells, 3 days incubation; minimum concentration of the drug inducing increase of ALP activity
Protocol: Increase of alkaline phosphatase (ALP) activity is known as an indicator for differentiation of human colon cancer cells. […] Thus, differentiation inducing action was evaluated using ALP activity as an indicator.
To each well of a 96-well plate was placed 0.1 mL of A2780 cells (15,000 cells/well) and the next day was added 0.1 mL of a sequential dilute of test solution with the medium. […] The reaction was quenched with 0.05 mL/well of 3N sodium hydroxide aq. For each well, an absorbance at 405 nm was measured to determine the minimum concentration of the drug inducing increase of ALP activity (ALPmin).

SMILES | melting point | minimal effective concentration (A2780 cells)
Nc1ccccc1NC(=O)c1ccc(CNC(=O)c2ccccc2Cl)cc1 [Example 2, N-(2-aminophenyl)-4-[N-(2-chlorobenzoyl)aminomethyl]benzamide] | 201 to 204 °C (dec.) | 3 µM
COc1cccc(C(=O)NCc2ccc(C(=O)Nc3ccccc3N)cc2)c1 [Example 5, N-(2-aminophenyl)-4-[N-(3-methoxybenzoyl)aminomethyl]benzamide] | 182 to 185 °C | 1 µM
COc1ccc(C(=O)NCc2ccc(C(=O)Nc3ccccc3N)cc2)cc1 [Example 6, N-(2-aminophenyl)-4-[N-(4-methoxybenzoyl)aminomethyl]benzamide] | 149 to 151 °C | 1 µM
CN(C)c1ccc(C(=O)NCc2ccc(C(=O)Nc3ccccc3N)cc2)cc1 [Example 8, N-(2-aminophenyl)-4-[N-[4-(N,N-dimethyl)aminobenzoyl]aminomethyl]benzamide] | 216 to 219 °C (dec.) | 1 µM
Nc1ccccc1NC(=O)c1ccc(CNC(=O)c2ccc(C(F)(F)F)cc2)cc1 [Example 9, N-(2-aminophenyl)-4-[N-(4-trifluoromethylbenzoyl)aminomethyl]benzamide] | 243 to 246 °C | 1 µM
Cc1cccc(C(=O)NCc2ccc(C(=O)Nc3ccccc3N)cc2)n1 [Example 13, N-(2-aminophenyl)-4-[N-(6-methylpicolinoyl)aminomethyl]benzamide] | 172 to 173 °C | 1 µM
Cc1ccc(C(=O)NCc2ccc(C(=O)Nc3ccccc3N)cc2)cn1 [Example 16, N-(2-aminophenyl)-4-[N-(6-methylnicotinoyl)aminomethyl]benzamide] | 186 to 190 °C (dec.) | 3 µM
Nc1ccccc1NC(=O)c1ccc(CNC(=O)c2cccnc2Cl)cc1 [Example 17, N-(2-aminophenyl)-4-[N-(2-chloronicotinoyl)aminomethyl]benzamide] | 176 to 178 °C (dec.) | 3 µM
Nc1ccccc1NC(=O)c1ccc(NC(=O)CCCc2cccnc2)cc1 [Example 118, N-(2-aminophenyl)-4-[[4-(pyridin-3-yl)butanoyl]amino]benzamide] | 165 to 167 °C (dec.) | 
Nc1ccccc1NC(=O)c1ccc(CNc2c(NCc3cccnc3)c(=O)c2=O)cc1 [Example 144, N-(2-aminophenyl)-4-[N-[3-[(pyridin-3-yl)methylamino]cyclobuten-1,2-dion-4-yl]aminomethyl]benzamide] | 230 °C | 

Continued, in another order:

melting point | SMILES | minimal effective concentration (A2780 cells)
206 to 209 °C | Cl.Nc1ccccc1NC(=O)c1ccc(CNC(=O)c2ccccc2)cc1 [Example 1, N-(2-aminophenyl)-4-(N-benzoylaminomethyl)benzamide hydrochloride] | 1 µM
210 to 212 °C (dec.) | Cl.Nc1ccccc1NC(=O)c1ccc(CNC(=O)c2ccccc2[N+](=O)[O-])cc1 [Example 3, N-(2-aminophenyl)-4-[N-(2-nitrobenzoyl)aminomethyl]benzamide hydrochloride] | 3 µM
208 to 210 °C (dec.) | COc1cc(C(=O)NCc2ccc(C(=O)Nc3ccccc3N)cc2)cc(OC)c1OC [Example 7, N-(2-aminophenyl)-4-[N-(3,4,5-trimethoxybenzoyl)aminomethyl]benzamide] | 1 µM
191 to 194 °C (dec.) | Cc1ncccc1C(=O)NCc1ccc(C(=O)Nc2ccccc2N)cc1 [Example 15, N-(2-aminophenyl)-4-[N-(2-methylnicotinoyl)aminomethyl]benzamide] | 3 µM
205 to 208 °C (dec.) | Nc1ccccc1NC(=O)c1ccc(CNC(=O)c2ccc(Cl)nc2)cc1 [Example 18, N-(2-aminophenyl)-4-[N-(6-chloronicotinoyl)aminomethyl]benzamide] | 3 µM
